Measurements taken from PMC12848076, “Identification of two odorant receptors tuned to alarm pheromone compounds in the honey bee Apis mellifera” (Communications Biology, 2025).
Marks after values point to notes of the source that are not given here.

Assays:
Format in all cases: cell-based
[1] = target: T1, AmelOR109 (Apis mellifera, UniProt A0A7M6UWX9); assay: single sensillum recording, ab3A OSN; settings: agonist; 1000 µg on filter paper; vs mineral oil
T1 construct: gene Or109; full-length ORF, codon-optimized, pUAST.attB at 86F8; expressed in ab3A OSNs of D. melanogaster lacking OR22a/OR22b (empty neuron); endogenous Drosophila Orco as co-receptor; with Odorant receptor coreceptor
T1 sequence (A0A7M6UWX9 1-390): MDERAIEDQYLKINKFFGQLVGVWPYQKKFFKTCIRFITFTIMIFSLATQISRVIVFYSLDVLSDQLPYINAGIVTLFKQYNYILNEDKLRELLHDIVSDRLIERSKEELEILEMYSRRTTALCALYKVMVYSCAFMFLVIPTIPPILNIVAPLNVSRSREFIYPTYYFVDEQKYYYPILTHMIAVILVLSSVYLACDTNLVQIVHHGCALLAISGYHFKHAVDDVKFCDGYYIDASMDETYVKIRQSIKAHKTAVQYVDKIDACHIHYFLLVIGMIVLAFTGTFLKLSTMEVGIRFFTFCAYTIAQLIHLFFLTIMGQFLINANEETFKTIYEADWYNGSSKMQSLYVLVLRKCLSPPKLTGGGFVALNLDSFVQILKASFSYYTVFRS
T1 sequence (Q9VNB5 1-486 partner): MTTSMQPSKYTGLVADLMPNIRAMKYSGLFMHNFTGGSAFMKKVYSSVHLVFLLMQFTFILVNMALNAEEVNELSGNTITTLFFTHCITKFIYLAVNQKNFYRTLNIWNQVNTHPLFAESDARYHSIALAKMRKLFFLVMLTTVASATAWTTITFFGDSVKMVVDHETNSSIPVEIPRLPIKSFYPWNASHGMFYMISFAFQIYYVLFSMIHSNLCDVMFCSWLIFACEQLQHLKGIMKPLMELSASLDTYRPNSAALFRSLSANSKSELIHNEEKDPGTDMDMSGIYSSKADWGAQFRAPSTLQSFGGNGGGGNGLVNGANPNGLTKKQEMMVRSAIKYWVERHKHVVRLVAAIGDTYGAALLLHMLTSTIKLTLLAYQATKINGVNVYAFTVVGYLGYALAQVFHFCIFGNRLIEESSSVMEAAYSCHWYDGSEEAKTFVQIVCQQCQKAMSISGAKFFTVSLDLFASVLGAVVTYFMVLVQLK

[2] = target: T1, AmelOR109; assay: single sensillum recording, ab3A OSN, dose-response; settings: agonist; estimated airborne amount in stimulus, not a concentration; vs mineral oil; full curve only in Figure 5B
[3] = target: T1, AmelOR109; assay: transcuticular calcium imaging (GCaMP6s), ab3A OSN; settings: agonist; 1000 µg on filter paper; vs mineral oil

Row | Compound | dose of statistical significance [2] [pmol] | other results
1 | CCC(C)=O [2-butanone] |  | spikes per second [1]: AmelOR109 was activated by multiple compounds in the panel, including 2-butanone
2 | CC(=O)OCc1ccccc1 [benzyl acetate] | 390 | 
3 | CC(C)=CCC/C(C)=C/C(=O)O [geranic acid] |  | ΔF/F0 [3]: two compounds from the aggregation pheromone were strongly active: geranic acid

The next lines start with results.

Row | dose of statistical significance [2] [pmol] | Compound | other results
4 | 2700 | CC(=O)OCCC(C)C [isopentyl acetate] | 
5 | 47000 | CCCC(=O)OCC [ethyl butyrate] | 
6 | 15000 | CCCCCCCCOC(C)=O [octyl acetate] | 
